Results: article doi:10.1101/2024.08.25.609621 (bioRxiv, 2024)
Like-named read-outs stand apart in the source and are kept apart here.

Biological target: SARS-CoV-2 NSP3 macrodomain (Mac1), P43 crystal form (Severe acute respiratory syndrome coronavirus 2, UniProt P0DTD1)
Type: binding
Details: for 1-BDC: PanDDA background density correction; for Total number of conformations: ligand conformations modeled in Mac1 crystal structure; for 2*(1-BDC) (%): occupancy estimate from PanDDA 1-BDC
[1] = crystal soak, soak concentration 10 mM
[2] = crystal soak, soak concentration 10 mM, TRUE = ligand hit
[3] = X-ray crystal structure determined (TRUE)
[4] = crystal soak 10 mM, P43 crystals
[5] = site of ligand in X-ray crystal structure
[6] = crystal soak 10 mM, TFA/DMSO background map

Compound	1-BDC	Pandda run, overall: Modeled [1]	Pandda run, overall: Hit [2]	X-ray crystal structure (crystal structure with Mac1 determined (TRUE))	Total number of conformations	2*(1-BDC) (%)	Binding site (site of ligand in Mac1 crystal structure)	PanDDA run, DMSO background map: 1-BDC (soak concentration 10 mM)	PanDDA run, DMSO background map: Hit (soak concentration 10 mM)	Pandda run, overall: Modeling comment [1]	X-ray crystal structure [3]	Pandda run, overall: Hit [4]	Pandda run, overall: Modeled [4]	PanDDA run, DMSO background map: 1-BDC (crystal soak 10 mM)	PanDDA run, DMSO background map: Hit (crystal soak 10 mM)	Binding site [5]	Pandda run, overall: Modeling comment [4]	PanDDA run, TFA/DMSO background map: 1-BDC [6]	PanDDA run, TFA/DMSO background map: Hit [6]
O[C@@H]1CN(c2ncnc3[nH]ccc23)C[C@H]1F [AVI-616]	0.2	TRUE	TRUE	TRUE	1	40%	Adenosine	0.2	TRUE										
O=C(O)C(F)(F)F.OC1c2ccccc2CC1Nc1ncnc2[nH]ccc12 (stereo not shown) [AVI-3634]										TFA only									
CCC(Nc1ncnc2[nH]ccc12)C(C)O (stereo not shown) [AVI-3635]	0.14		TRUE		2	28%		0.23	TRUE		TRUE	TRUE	TRUE	0.14	TRUE	Adenosine			
OCC(CC(F)(F)F)Nc1ncnc2[nH]ccc12 (stereo not shown) [AVI-3637]	0.23	TRUE	TRUE		1	46%		0.23	TRUE		TRUE					Adenosine			
OCC(Nc1ncnc2[nH]ccc12)C1CCC1 (stereo not shown) [AVI-3638]	0.13				1	26%					TRUE	TRUE	TRUE	0.13	TRUE	Adenosine			
O=C(O)C(F)(F)F.O[C@H]1CCC[C@@H]1Nc1ncnc2[nH]ccc12 [AVI-3639]	0.11				1	22%					TRUE	TRUE	TRUE	0.11	TRUE	Adenosine			
OCC(CC1CCC1)Nc1ncnc2[nH]ccc12 (stereo not shown) [AVI-3641]	0.18				1	36%					TRUE	TRUE	TRUE	0.18	TRUE	Adenosine			
OCC(CC(O)c1ccccc1)Nc1ncnc2[nH]ccc12 (stereo not shown) [AVI-3642]	0.17				1	34%					TRUE	TRUE	TRUE	0.17	TRUE	Adenosine			
CCC(CO)Nc1ncnc2[nH]ccc12 (stereo not shown) [AVI-3643]	0.16				1	32%					TRUE	TRUE	TRUE	0.16	TRUE	Adenosine			
C#CCC(CO)Nc1ncnc2[nH]ccc12 (stereo not shown) [AVI-3644]	0.18				1	36%					TRUE	TRUE	TRUE	0.18	TRUE	Adenosine			
O=C(O)C(F)(F)F.OCC(Nc1ncnc2[nH]ccc12)C1CCCO1 (stereo not shown) [AVI-3645]												TRUE		0.22	TRUE		Weak density, not modeled	0.12	TRUE
